This note sets out measurements from patent US20180021319A1, “COMPOSITIONS AND METHODS FOR TREATING GASTROINTESTINAL INFECTIONS” (The Regents of the University of California, priority 2015, published 2018).

For this experiment, the system named is Helicobacter pylori. Briefly: Dual therapy of AGN 201904 with amoxicillin to treat H. pylori infection. The class given is in vivo. As to conditions: AGN 201904 with amoxicillin alone (dual therapy), compared to standard H. pylori infection therapies.

For `COc1ccc2c(c1)nc([S+]([O-])Cc1ncc(C)c(OC)c1C)n2S(=O)(=O)c1ccc(OCC(=O)O)cc1` (centres unmarked) [AGN 201904], the “H. pylori eradication rate” value was “higher eradication rate” and the H. pylori resistance entry is recorded as “no H. pylori resistance”.
